Test systems include networked ESN cultures; ESNs; iGluR; GABARA.
What all share (format): cell-based, mouse

Take `Nc1ccncc1N` [3,4-DAP, 3,4-diaminopyridine]: in the assay with networked ESN cultures, the “network behaviour in simultaneous dual intracellular recordings” value was “rapid transition to a synchronized bursting behavior”. With `NCCCC(=O)O` [GABA], the “effect on spontaneous network activity” value in the assay on networked ESN cultures is reported as “silenced spontaneous network activity”. In the case of `NC1=N[C@H](O)[C@H]2[C@H]3O[C@]4(O)O[C@@H]([C@@H](O)[C@@]2(N1)[C@@H]4O)[C@]3(O)CO` [TTX, tetrodotoxin], the excitatory post-synaptic currents result in the assay on ESNs is listed as “blocked”. `N[C@@H](CCC(=O)O)C(=O)O` [glutamate]: the agonist-induced current result in the assay on iGluR is reported as “multiphasic inward current”. Take `NCc1cc(=O)[nH]o1` [muscimol]: the agonist-induced current entry in the assay with GABARA was “large desensitizing Cl-current”.
